Read-outs that look alike come from different tables or passages of the source.
Experiments:
tactile allodynia [1] = test: CCI/Tactile Allodynia (von Frey hairs); type: in vivo; conditions: CCI rats; for dose that reversed tactile allodynia: i.p., post-hoc comparison
Procedure: (§1) Rats were anesthetized under aseptic and heated conditions using a combination of 1.6 ml ketamine (100 mg/ml) and 1.6 ml xylazine (100 mg/ml) in 6.8 ml 0.9% saline at a volume of 0.1 ml/100 g. The left quadriceps was shaved and scrubbed thoroughly with an iodine solution. The sciatic nerve was exposed at the level of the sciatic notch distally to the sciatic trifurcation. The nerve was very carefully freed from the underlying muscle and connective tissue without causing trauma to the nerve itself. Using 4-0 chromic catgut suture material, four semi-loose ligatures were tied around the sciatic nerve starting at the most proximal level, next to the sciatic notch, spaced roughly 1 mm apart and ending proximal to the sciatic trifurcation. […] The muscular incision was closed with 4-0 silk suture material and the skin was stapled with wound clips. The animals were closely observed until they recovered completely from the anesthetic. The surgery was the same for the hyperalgesia and allodynia experiments.
The onset and duration of significant mechanical allodynia post CCI surgery is approximately 10-14 days and lasts for roughly two months. Within this allodynic time frame, and for each specific allodynia experiment, pre and post drug administration measurements were taken with seven von Frey hairs which are designated by log (10* force required to bend hair, mg) and ranged from 2-26 grams (#'s 4.31-5.46). Each hair was pressed perpendicularly against the left injured plantar mid-hind paw surface with sufficient force to cause a slight bending, and was held for 6-8 seconds starting with the thinnest gauged hair and working up to the thickest. A positive response was recorded when the injured paw was sharply withdrawn, and this response was confirmed as positive by testing the next thickest gauged hair for the same response. Only when a response was seen twice was the score accepted. If the maximum gram force of 26 was reached without a response, this was considered the peak threshold cutoff for allodynic behavior and the score was recorded. Animals were considered allodynic when the post surgery baseline measurements were 6 grams and below. Two baseline days of measurements were taken with one round of testing occurring per day. On the day of drug testing, one round of baseline measurements were taken, the appropriate pretreatment was administered i.p. and a second round of measurements were recorded. Each animal was utilized in multiple experiments, with one treatment per experiment, and an appropriate washout period in between experiments.

acute thermal pain = test: Acute Thermal Analgesia (tail withdrawal from 55° C. water); type: in vivo; conditions: rats; for dose active in acute antinociception (tail withdrawal) / alleviating acute thermal pain, in words: 55° C. water; for Acute pain, minimal effective dose: NA = not active at the highest tested dose of 30 mg/kg
Procedure: Water was heated and maintained at 55° C.±1° C. with a probe regulated hot plate. Female rats weighing approximately 200 g -250 g were acclimated days in advance by placing them into and removing them from a plastic rat restrainer. On the day of the experiment each rat was placed in the restrainer 1 minute before the test was performed. Roughly one inch of the tail was submerged into the water as a timer was initiated. Once the tail was completely removed from the water, the timer was stopped and the time was recorded. […] One round of baseline measurements were collected. The test compound was administered and after the appropriate pretreatment interval, the procedure was repeated. Each animal was utilized in multiple experiments, with one treatment per experiment, and an appropriate washout period of at least 48 hours between experiments. The pre-treatment baseline tail withdrawal latency average was 2.281 s±0.25. […] At a dose of 10 mg/kg, morphine [F(3,23)=5.903, p<0.01] was antinociceptive.

M(1) muscarinic receptor = target: T1, M(1) muscarinic receptor (Homo sapiens, UniProt P11229); test: R-SAT functional receptor assay, M(1); type: cell-based; conditions: for Emax: read-out: M1 % efficacy
T1 construct: expressed in transfected cells
T1 sequence (P11229 1-460): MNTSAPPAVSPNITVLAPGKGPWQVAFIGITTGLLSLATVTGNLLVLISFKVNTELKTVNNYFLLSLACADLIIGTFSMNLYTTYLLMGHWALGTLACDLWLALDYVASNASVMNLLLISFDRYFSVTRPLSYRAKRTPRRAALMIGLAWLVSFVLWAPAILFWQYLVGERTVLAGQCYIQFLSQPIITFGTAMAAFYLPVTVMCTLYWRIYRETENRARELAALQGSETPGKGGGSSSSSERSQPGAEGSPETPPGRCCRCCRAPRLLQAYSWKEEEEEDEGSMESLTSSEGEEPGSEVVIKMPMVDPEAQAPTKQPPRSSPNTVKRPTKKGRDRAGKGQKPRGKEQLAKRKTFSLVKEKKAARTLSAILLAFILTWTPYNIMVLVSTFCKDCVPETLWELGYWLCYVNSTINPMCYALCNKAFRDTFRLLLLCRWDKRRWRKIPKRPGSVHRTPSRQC
Source text: (§2) The functional receptor assay, Receptor Selection and Amplification Technology (R-SAT), essentially as disclosed in U.S. Pat. Nos. 5,707,798, 5,912,132, and 5,955,281, which are all hereby incorporated by reference in their entirety, was used to investigate the pharmacological properties of known and novel muscarinic agonists.

thermal hyperalgesia = test: CCI/Thermal Hyperalgesia (paw withdrawal latency to radiant heat); type: in vivo; conditions: CCI rats; for dose that significantly reversed thermal hyperalgesia: post-hoc comparison relative to vehicle
Procedure: as §1
For hyperalgesia testing, rats were placed in a tinted plastic box on top of a clear glass, temperature-regulated floor maintained at 31±1° C. The floor contained a focal radiant heat source (halogen projection lamp CXL/CXP, 50 W, 8 v, USHIO, Tokyo).
To initiate the test, rats were placed in the tinted boxes and allowed 10-20 minutes to acclimate to the new environment. The radiant heat source was then positioned under the plantar surface of the hind paw. Upon activation of the heat source, a timer was simultaneously triggered. Upon reflex movement of the hind paw, a motion sensor was activated stopping the timer and inactivating the heat source. The thermal source was adjusted so that the average response latency for an uninjured animal was no greater than 20 seconds. Each rat had two days of pre-operative baseline latency measurements in which the left rear hind paw plantar surface was measured three to four times. Two to three left postoperative baseline latency measurements were taken before and after the treatment was given. Postoperative day 2 and 4 measurements yielded the greatest degree of hyperalgesia and thus were utilized in this assay. Each animal was tested twice with at least 48 hours separating each test.
Thermal hyperalgesia developed in the surgical-treated left paw as evidenced by a decrease in paw withdrawal latencies to a thermal stimulus. The maximal hyperalgesia occurred on post-operative days 2 through 4. Paw withdrawal latencies on the surgically-treated left side gradually returned to baseline levels over the course of 5 to 12 days post-surgery.

M(2) muscarinic receptor = target: T2, M(2) muscarinic receptor (Homo sapiens, UniProt P08172); test: R-SAT functional receptor assay, M(2); type: cell-based; conditions: for Emax: read-out: M2 % efficacy
T2 construct: expressed in transfected cells
T2 sequence (P08172 1-466): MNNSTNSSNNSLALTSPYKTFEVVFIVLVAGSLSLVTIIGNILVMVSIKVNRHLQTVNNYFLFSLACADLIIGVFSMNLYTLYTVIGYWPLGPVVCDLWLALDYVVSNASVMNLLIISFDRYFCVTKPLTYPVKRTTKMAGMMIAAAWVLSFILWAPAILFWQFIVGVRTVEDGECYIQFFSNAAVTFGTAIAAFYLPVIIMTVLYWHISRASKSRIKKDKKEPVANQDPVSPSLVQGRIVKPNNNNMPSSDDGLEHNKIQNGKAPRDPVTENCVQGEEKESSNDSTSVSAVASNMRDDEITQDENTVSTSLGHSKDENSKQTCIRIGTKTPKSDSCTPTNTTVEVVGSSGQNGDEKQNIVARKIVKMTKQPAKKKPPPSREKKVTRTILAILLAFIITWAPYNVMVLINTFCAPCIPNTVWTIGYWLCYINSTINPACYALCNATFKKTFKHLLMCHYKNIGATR
Source text: as §2

rats = test: Muscarinic Side Effects; conditions: of N tested
tactile allodynia [2] = test: Partial Sciatic Ligation (PSL) Surgery/Tactile Allodynia; type: in vivo, mice
[3] = R-SAT, read-out: M1 pEC50 (converted)
[4] = R-SAT, read-out: M2 pEC50 (converted)

| SMILES | dose active in acute antinociception (tail withdrawal) (acute thermal pain) | agonist character at M(1) receptor, in words (M(1) muscarinic receptor; R-SAT) | EC50 (M(1) muscarinic receptor; [3]) | Emax (M(1) muscarinic receptor; R-SAT, relative to carbachol) | Antiallodynic, minimal effective dose (tactile allodynia [1]) | dose that reversed tactile allodynia (tactile allodynia [1]) | alleviating acute thermal pain, in words (acute thermal pain) | Antihyperalgesic, minimal effective dose (thermal hyperalgesia) | dose that significantly reversed thermal hyperalgesia (thermal hyperalgesia) | agonist character at M(2) receptor, in words (M(2) muscarinic receptor; R-SAT) | EC50 (M(2) muscarinic receptor; [4]) | Emax (M(2) muscarinic receptor; R-SAT, relative to carbachol) | Acute pain, minimal effective dose (acute thermal pain) | other results |
| --- | --- | --- | --- | --- | --- | --- | --- | --- | --- | --- | --- | --- | --- | --- |
| CN1CC[C@]23c4c5ccc(O)c4O[C@H]2[C@@H](O)C=C[C@H]3[C@H]1C5 [Morphine, morphine] | 10 mg/kg | – | – | – | – | – | – | – | – | – | – | – | – | anti-allodynia, in words (tactile allodynia [1]): elicited anti-allodynia |
| CCCCC1CCN(CCCc2nsc3ccccc23)CC1 [Formula (VII)] | – | potent and efficacious M(1) agonist | 0.0794 µM | 85% | 10.0 mg/kg | 10 mg/kg | not active | 10.0 mg/kg | 10 mg/kg | weak partial agonists | 1.26 µM | 36% | – | – |
| O=C1CCCN1CC#CCN1CCCC1 [Oxotremorine] | – | potent and efficacious full agonists | – | – | 0.3 mg/kg | – | – | 0.3 mg/kg | – | potent and efficacious full agonists | – | – | 0.3 mg/kg | Chromodaccyhrea, number of animals exhibiting (rats; 0.1 mg/kg): 0; Diarrhea, number of animals exhibiting (rats; 0.1 mg/kg): 1; Lethargy, number of animals exhibiting (rats; 0.1 mg/kg): 0; Salivation, number of animals exhibiting (rats; 0.1 mg/kg): 0; Tremor, number of animals exhibiting (rats; 0.1 mg/kg): 0; Chromodaccyhrea, number of animals exhibiting (rats; 0.3 mg/kg): 2; Diarrhea, number of animals exhibiting (rats; 0.3 mg/kg): 7; Lethargy, number of animals exhibiting (rats; 0.3 mg/kg): 0; Salivation, number of animals exhibiting (rats; 0.3 mg/kg): 9; Tremor, number of animals exhibiting (rats; 0.3 mg/kg): 0; Chromodaccyhrea, number of animals exhibiting (rats; 1 mg/kg): 8; Diarrhea, number of animals exhibiting (rats; 1 mg/kg): 18; Lethargy, number of animals exhibiting (rats; 1 mg/kg): 18; Salivation, number of animals exhibiting (rats; 1 mg/kg): 16; Tremor, number of animals exhibiting (rats; 1 mg/kg): 6; EC50 (M(1) muscarinic receptor): 0.0631 µM; Emax (M(1) muscarinic receptor): 91%; paw withdrawal latency (thermal hyperalgesia; dose 1 mg/kg): 18.468 ± 1.532 s; EC50 (M(2) muscarinic receptor): 0.0158 µM; Emax (M(2) muscarinic receptor): 104% |
| CCCCC1CCN(CCCN2C(=O)COc3cc(F)ccc32)CC1 [Formula (IX)] | – | potent and efficacious M(1) agonist | 0.0316 µM | 79% | 17.8 mg/kg | 17.8 mg/kg | not active | 10.0 mg/kg | 10 mg/kg | weak partial agonists | 0.501 µM | 48% | – | effect on tactile allodynia after PSL, in words (tactile allodynia [2]; M(1) receptor knockout (KO) mice, 30 mg/kg): completely abolished; effect on tactile allodynia after PSL, in words (tactile allodynia [2]; mice, intracerebroventricular (i.c.v.) administration): significantly reversed tactile allodynia; effect on tactile allodynia after PSL, in words (tactile allodynia [2]; wild type (WT) mice, 30 mg/kg): significantly alleviated the tactile allodynia |
| CCCCC1CCN(CCCN2CCOc3ccc(C)cc32)CC1 [Formula (VIII)] | – | potent and efficacious M(1) agonist | 0.02 µM | – | 30.0 mg/kg | 30 mg/kg | not active | 10.0 mg/kg | 10 mg/kg | weak partial agonists | 0.501 µM | – | – | Emax (M(1) muscarinic receptor): 81%; Emax (M(2) muscarinic receptor): 39% |
| CCCCCCOc1nsnc1C1=CCCN(C)C1 [Xanomeline] | 10.0 mg/kg | – | – | – | 10.0 mg/kg | – | – | 10.0 mg/kg | 10 mg/kg | potent and efficacious full agonists | – | 109% | 10.0 mg/kg | dose that did not reverse thermal hyperalgesia (thermal hyperalgesia; p>0.05 relative to vehicle): 3 mg/kg |
| CO/N=C/C1=CCCN(C)C1 [Milameline] | 1.0 mg/kg | potent and efficacious full agonists | 0.398 µM | 90% | 0.3 mg/kg | – | – | 0.3 mg/kg | – | potent and efficacious full agonists | 0.631 µM | 110% | 1.0 mg/kg | – |

From patent US20050130961A1, “Muscarinic M1 receptor agonists for pain management” (priority 2003, published 2005)
